From patent US8648081B2 (Eli Lilly and Company, priority 2011, dated 2014) come the findings set out here.

The experiment relates to Lone star tick larvae (Amblyomma americanum). Nature of the experiment: In Vitro Larval Immersion Microassay (LIM). To be noted: read-out: % Efficacy (percent larval mortality). Here is the method: In Vitro Larval Immersion Microassay (LIM)
The larval immersion microassay may be conducted as described in White, et al., J. Med. Entomol. […] Briefly, experimental test articles are formulated in dimethylsulfoxide (DMSO) to prepare a stock solution at a concentration of 10 mM. […] Approximately 30-50 Lone star tick larvae (Amblyomma americanum) are submerged into each well containing experimental test articles. After a 30 minute immersion period, larvae are removed with a wide-bore pipette tip in 0.05 ml of fluid, dispensed into a commercial paper tissue biopsy bag which is sealed at the top with a plastic dialysis clip, inverted and allowed to air dry for 60 minutes. Bags containing larvae are then incubated at approximately 27 degrees Celsius and >90% relative humidity. After 24 hours, bags are opened, live and dead larvae are counted and percent larval mortality is calculated as follows: % Efficacy=(# dead larvae)/(# total larvae)×100.

SMILES strings stand for the structures. Where two headings read alike, the source gives them in different places.

What is called mortality is the share of the test organisms that died. As for `O=C(CNC(=O)c1sc(C2=NOC(c3cc(Cl)c(F)c(Cl)c3)(C(F)(F)F)C2)c2c1CCC2)NCC(F)(F)F` (stereo not drawn) [Example 57, 3-(5-(3,5-dichloro-4-fluorophenyl)-5-(trifluoromethyl)-4,5-dihydroisoxazol-3-yl)-N-(2-oxo-2-(2,2,2-trifluoroethylamino)ethyl)-5,6-dihydro-4H-cyclopenta[c] thiophene-1-carboxamide], the mortality at 300 µM is at least 80%.

In the case of `O=C(N[C@@H]1CCNC1=O)c1sc(C2=NOC(c3cc(Cl)c(F)c(Cl)c3)(C(F)(F)F)C2)c2c1CCC2` (stereo partly drawn) [Example 58, 3-(5-(3,5-dichloro-4-fluorophenyl)-5-(trifluoromethyl)-4,5-dihydroisoxazol-3-yl)-N-((R)-2-oxopyrrolidin-3-yl)-5,6-dihydro-4H-cyclopenta[c] thiophene-1-carboxamide], the mortality at 300 µM was at least 80%.

As for `N#CCNC(=O)CNC(=O)c1sc(C2=NOC(c3cc(Cl)c(F)c(Cl)c3)(C(F)(F)F)C2)c2c1CCC2` (stereo not drawn) [Example 59, N-(2-(cyanomethyl-amino)-2-oxoethyl)-3-(5-(3,5-dichloro-4-fluorophenyl)-5-(trifluoromethyl)-4,5-dihydroisoxazol-3-yl)-5,6-dihydro-4H-cyclopenta[c] thiophene-1-carboxamide], the mortality at 300 µM was at least 80%.

In the case of `O=C(NC1CCN(CC(F)(F)F)C1=O)c1sc(C2=NOC(c3cc(Cl)c(F)c(Cl)c3)(C(F)(F)F)C2)c2c1CCC2` (stereo not drawn) [Example 60, 3-(5-(3,5-dichloro-4-fluorophenyl)-5-(trifluoromethyl)-4,5-dihydroisoxazol-3-yl)-N-(2-oxo-1-(2,2,2-trifluoroethyl)pyrrolidin-3-yl)-5,6-dihydro-4H-cyclopenta[c] thiophene-1-carboxamide], the mortality at 300 µM was at least 80%.

As to `C#CCNC(=O)CNC(=O)c1sc(C2=NOC(c3cc(Cl)c(F)c(Cl)c3)(C(F)(F)F)C2)c2c1CCC2` (stereo not drawn) [Example 61, 3-(5-(3,5-dichloro-4-fluorophenyl)-5-(trifluoromethyl)-4,5-dihydroisoxazol-3-yl)-N-(2-oxo-2-(prop-2-ynylamino)ethyl)-5,6-dihydro-4H-cyclopenta[c] thiophene-1-carboxamide], the mortality at 300 µM was at least 80%.

For `O=C(CNC(=O)c1sc(C2=NOC(c3cc(Cl)cc(Cl)c3)(C(F)(F)F)C2)c2c1CCCC2)NCC(F)(F)F` (stereo not drawn) [Example 62, 3-(5-(3,5-dichloro-phenyl)-5-(trifluoro-methyl)-4,5-dihydro-isoxazol-3-yl)-N-(2-oxo-2-(2,2,2-trifluoroethylamino)ethyl)-4,5,6,7-tetrahydrobenzo[c] thiophene-1-carboxamide], the mortality at 300 µM is at least 80%.

Take `CCNC(=O)CNC(=O)c1sc(C2=NOC(c3cc(Cl)cc(Cl)c3)(C(F)(F)F)C2)c2c1CCCC2` (stereo not drawn) [Example 63, 3-(5-(3,5-dichloro-phenyl)-5-(trifluoro-methyl)-4,5-dihydro-isoxazol-3-yl)-N-(2-(ethylamino)-2-oxoethyl)-4,5,6,7-tetrahydrobenzo [c]thiophene-1-carboxamide]: the mortality at 300 µM is at least 80%.

As for `O=C(NCC1CCCO1)c1sc(C2=NOC(c3cc(Cl)cc(Cl)c3)(C(F)(F)F)C2)c2c1CCCC2` (stereo not drawn) [Example 64, 3-(5-(3,5-dichloro-phenyl)-5-(trifluoro-methyl)-4,5-dihydro-isoxazol-3-yl)-N-((tetrahydrofuran-2-yl)methyl)-4,5,6,7-tetrahydro-benzo[c]thiophene-1-carboxamide], the mortality at 300 µM is at least 80%.

`CSCCNC(=O)c1sc(C2=NOC(c3cc(Cl)cc(Cl)c3)(C(F)(F)F)C2)c2c1CCCC2` (stereo not drawn) [Example 65, 3-(5-(3,5-dichloro-phenyl)-5-(trifluoro-methyl)-4,5-dihydro-isoxazol-3-yl)-N-(2-(methylthio)ethyl)-4,5,6,7-tetra-hydrobenzo[c] thiophene-1-carboxamide]: the mortality at 300 µM is at least 80%.

Turning to `O=C(NCCC(F)(F)F)c1sc(C2=NOC(c3cc(Cl)cc(Cl)c3)(C(F)(F)F)C2)c2c1CCCC2` (stereo not drawn) [Example 66, 3-(5-(3,5-dichloro-phenyl)-5-(trifluoro-methyl)-4,5-dihydro-isoxazol-3-yl)-N-(3,3,3-trifluoropropyl)-4,5,6,7-tetrahydrobenzo[c] thiophene-1-carboxamide], the mortality at 300 µM is at least 80%.

As for `O=C(NC1CCCC(O)C1)c1sc(C2=NOC(c3cc(Cl)cc(Cl)c3)(C(F)(F)F)C2)c2c1CCCC2` (stereo not drawn) [Example 67, 3-(5-(3,5-dichloro-phenyl)-5-(trifluoro-methyl)-4,5-dihydro-isoxazol-3-yl)-N-(3-hydroxycyclohexyl)-4,5,6,7-tetrahydrobenzo [c]thiophene-1-carboxamide], the mortality at 300 µM is at least 80%.

As for `O=C(Nc1ccc(F)cn1)c1sc(C2=NOC(c3cc(Cl)cc(Cl)c3)(C(F)(F)F)C2)c2c1CCCC2` (stereo not drawn) [Example 68, 3-(5-(3,5-dichloro-phenyl)-5-(trifluoro-methyl)-4,5-dihydro-isoxazol-3-yl)-N-(5-fluoropyridin-2-yl)-4,5,6,7-tetrahydro-benzo[c]thiophene-1-carboxamide], the mortality at 300 µM is at least 80%.

On to `O=C(NC1CCCOC1)c1sc(C2=NOC(c3cc(Cl)cc(Cl)c3)(C(F)(F)F)C2)c2c1CCCC2` (stereo not drawn) [Example 69], for which the mortality at 300 µM was at least 80%.

In the case of `O=C(NC1CSC1)c1sc(C2=NOC(c3cc(Cl)cc(Cl)c3)(C(F)(F)F)C2)c2c1CCCC2` (stereo not drawn) [Example 70, 3-(5-(3,5-dichloro-phenyl)-5-(trifluoro-methyl)-4,5-dihydro-isoxazol-3-yl)-N-(thietan-3-yl)-4,5,6,7-tetrahydrobenzo[c] thiophene-1-carboxamide], the mortality at 300 µM is at least 80%.

Consider `O=C(NC1CCOCC1)c1sc(C2=NOC(c3cc(Cl)cc(Cl)c3)(C(F)(F)F)C2)c2c1CCCC2` (stereo not drawn) [Example 71, 3-(5-(3,5-dichloro-phenyl)-5-(trifluoro-methyl)-4,5-dihydro-isoxazol-3-yl)-N-(tetrahydro-2H-pyran-4-yl)-4,5,6,7-tetrahydrobenzo [c]thiophene-1-carboxamide], for which the mortality at 300 µM was at least 80%.

Consider `O=C(NC1CCN(C2CC2)C1=O)c1sc(C2=NOC(c3cc(Cl)cc(Cl)c3)(C(F)(F)F)C2)c2c1CCCC2` (stereo not drawn) [Example 72], for which the mortality at 300 µM is at least 80%.

For the compound `C#CCNC(=O)CNC(=O)c1sc(C2=NOC(c3sc(Cl)c(Cl)c3Cl)(C(F)(F)F)C2)c2c1CCCC2` (stereo not drawn) [Example 74, N-(2-oxo-2-(prop-2-ynylamino)ethyl)-3-(5-(3,4,5-trichloro-thiophen-2-yl)-5-(trifluoromethyl)-4,5-dihydroisoxazol-3-yl)-4,5,6,7-tetrahydro-benzo[c]thiophene-1-carboxamide], the mortality at 300 µM (tested at 300 micromolar, 30 minute immersion, mortality counted after 24 hours) is at least 80%.

Turning to `O=C(NC1CCS(=O)(=O)CC1)c1sc(C2=NOC(c3cc(Cl)c(Cl)c(Cl)c3)(C(F)(F)F)C2)c2c1CCCC2` (stereo not drawn) [Example 75, 3-[5-(3,4,5-Trichloro-phenyl)-5-trifluoro-methyl-4,5-dihydro-isoxazol-3-yl]-4,5,6,7-tetrahydro-benzo[c]thiophene-1-carboxylic acid (1,1-dioxo-hexahydro-thiopyran-4-yl)-amide], the mortality at 300 µM is at least 80%.

As to `O=C(NC1CCN(CC(F)(F)F)C1=O)c1sc(C2=NOC(c3cc(Cl)c(Cl)c(Cl)c3)(C(F)(F)F)C2)c2c1CCCC2` (stereo not drawn) [Example 76, N-(2-oxo-1-(2,2,2-trifluoroethyl)pyrrolidin-3-yl)-3-(5-(3,4,5-trichloro-phenyl)-5-(trifluoro-methyl)-4,5-dihydro-isoxazol-3-yl)-4,5,6,7-tetrahydro-benzo[c]thiophene-1-carboxamide], the mortality at 300 µM is at least 80%.

Take `O=C(NC1CCOCC1)c1sc(C2=NOC(c3cc(Cl)c(Cl)c(Cl)c3)(C(F)(F)F)C2)c2c1CCCC2` (stereo not drawn) [Example 77, N-(tetrahydro-2H-pyran-4-yl)-3-(5-(3,4,5-trichlorophenyl)-5-(trifluoromethyl)-4,5-dihydroisoxazol-3-yl)-4,5,6,7-tetrahydrobenzo[c] thiophene-1-carboxamide]: the mortality at 300 µM was at least 80%.

Consider `O=C(NC1CCN(C2CC2)C1=O)c1sc(C2=NOC(c3cc(Cl)c(Cl)c(Cl)c3)(C(F)(F)F)C2)c2c1CCCC2` (stereo not drawn) [Example 78, N-(1-cyclopropyl-2-oxopyrrolidin-3-yl)-3-(5-(3,4,5-trichloro-phenyl)-5-(trifluoro-methyl)-4,5-dihydro-isoxazol-3-yl)-4,5,6,7-tetrahydrobenzo[c] thiophene-1-carboxamide], for which the mortality at 300 µM is at least 80%.

As for `O=C(NC1CS(=O)(=O)C1)c1sc(C2=NOC(c3cc(Cl)c(F)c(Cl)c3)(C(F)(F)F)C2)c2c1CCCC2` (stereo not drawn) [Example 79, 3-[5-(3,5-Dichloro-4-fluoro-phenyl)-5-trifluoromethyl-4,5-dihydro-isoxazol-3-yl]-4,5,6,7-tetrahydro-benzo[c]thiophene-1-carboxylic acid (1,1-dioxo-thietan-3-yl)-amide], the mortality at 300 µM is at least 80%.

For the compound `O=C(NC1CCS(=O)(=O)CC1)c1sc(C2=NOC(c3cc(Cl)c(F)c(Cl)c3)(C(F)(F)F)C2)c2c1CCCC2` (stereo not drawn) [Example 80, 3-[5-(3,5-Dichloro-4-fluoro-phenyl)-5-trifluoromethyl-4,5-dihydro-isoxazol-3-yl]-4,5,6,7-tetrahydro-benzo[c] thiophene-1-carboxylic acid (1,1-dioxo-hexahydro-thiopyran-4-yl)-amide], the mortality at 300 µM is at least 80%.

For the compound `O=C1CCC(NC(=O)c2sc(C3=NOC(c4cc(Cl)c(F)c(Cl)c4)(C(F)(F)F)C3)c3c2CCCC3)CC1` (stereo not drawn) [Example 81, 3-(5-(3,5-dichloro-4-fluorophenyl)-5-(trifluoromethyl)-4,5-dihydroisoxazol-3-yl)-N-(4-oxocyclohexyl)-4,5,6,7-tetrahydrobenzo [c]thiophene-1-carboxamide], the mortality at 300 µM was at least 80%.
